What is called IC50 is the concentration that gives 50% inhibition. By microsomal CLint is commonly meant the capacity of the preparation to metabolise the compound, expressed as a volume cleared per time. A high value points to rapid turnover. The term share remaining denotes the share of the starting amount still present when the sample was taken.

Consider 2 compounds from publication PMC10485906, “Development of a Dihydroquinoline–Pyrazoline GluN2C/2D-Selective Negative Allosteric Modulator of the N-Methyl-D-aspartate Receptor” (ACS Chemical Neuroscience, 2023).

Bounds are passed on as bounds.

T1 sequence (P10635 whole entry): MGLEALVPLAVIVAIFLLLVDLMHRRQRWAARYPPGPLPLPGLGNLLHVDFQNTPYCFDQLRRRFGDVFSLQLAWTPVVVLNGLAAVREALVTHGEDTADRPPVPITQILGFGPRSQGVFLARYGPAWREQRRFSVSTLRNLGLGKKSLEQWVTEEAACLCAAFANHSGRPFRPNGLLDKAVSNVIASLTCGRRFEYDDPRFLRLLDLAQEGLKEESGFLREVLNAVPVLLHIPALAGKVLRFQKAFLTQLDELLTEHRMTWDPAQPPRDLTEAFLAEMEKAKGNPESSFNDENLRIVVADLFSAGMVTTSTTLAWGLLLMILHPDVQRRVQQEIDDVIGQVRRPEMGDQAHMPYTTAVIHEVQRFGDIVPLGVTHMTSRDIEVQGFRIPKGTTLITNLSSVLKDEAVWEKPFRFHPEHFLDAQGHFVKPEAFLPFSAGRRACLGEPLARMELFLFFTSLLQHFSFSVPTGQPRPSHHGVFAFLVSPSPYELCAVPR
Sequence of CYP3A4 (P08684 whole entry): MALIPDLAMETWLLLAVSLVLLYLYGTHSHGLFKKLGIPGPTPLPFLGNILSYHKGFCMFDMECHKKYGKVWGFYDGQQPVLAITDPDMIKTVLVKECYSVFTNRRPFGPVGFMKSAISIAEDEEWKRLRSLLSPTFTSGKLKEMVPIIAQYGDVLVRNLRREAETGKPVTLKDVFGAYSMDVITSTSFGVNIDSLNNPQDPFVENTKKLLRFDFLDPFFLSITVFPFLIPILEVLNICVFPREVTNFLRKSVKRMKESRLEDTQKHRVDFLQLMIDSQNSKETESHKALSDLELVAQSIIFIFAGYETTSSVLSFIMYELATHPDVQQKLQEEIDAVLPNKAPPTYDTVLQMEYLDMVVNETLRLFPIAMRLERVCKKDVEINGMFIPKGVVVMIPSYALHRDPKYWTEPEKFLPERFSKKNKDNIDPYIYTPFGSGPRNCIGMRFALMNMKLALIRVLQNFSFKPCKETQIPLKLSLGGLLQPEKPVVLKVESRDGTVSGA

One data set addresses CYP3A4 (Homo sapiens, UniProt P08684). In words: biochemical.
Details: not given
Turning to `O=C(O)CCC(=O)N1N=C(c2c(-c3ccc(Cl)cc3)c3ccccc3[nH]c2=O)CC1c1ccc(Cl)cc1` (stereo not shown) [2a], the IC50 came to 17 ± 3.4 µM.

Turning to `O=C(CC(F)(F)C(=O)N1N=C(c2c(-c3ccc(Cl)cc3)c3ccccc3[nH]c2=O)CC1c1ccc(Cl)cc1)OCc1ccccc1` (stereo not shown) [2p], the IC50 is > 20 µM.

Test system in the next data set: not listed separately
The data set can be described thus: Liver microsome stability, human. In kind it is in vitro ADME. The note with it: human liver microsomes. The procedure:
Human liver microsomes (HLMs, 20 mg/mL) and CD-1 mouse liver microsomes (MLMs, 20 mg/mL) were purchased from Xenotech. NADPH was purchased from Sigma-Aldrich and prepared in 10 mM stock solutions of distilled H2O (Invitrogen UltraPure). Verapamil and diphenhydramine were both purchased from Sigma-Aldrich and served as positive controls for HLM and MLM stability, respectively. Test compounds and positive controls were initially dissolved in DMSO to make 10 mM stock solutions. Sample solutions were then further diluted in 70% MeOH/H2O or 100% MeCN to 500 μM. Next, the reactions were prepared by mixing human or mouse liver microsomes (55 μL) with potassium phosphate buffer (100 mM, […]) in 1.5 mL Eppendorf tubes. The test compounds (6.6 μL of 500 μM solution) were subsequently added to the suspensions, and the reaction mixtures were incubated at 37 °C for 5 min. Afterward, the liver microsome reactions were initiated with 110 μL of 10 mM NADPH and further incubated at 37 °C for the designated time course of the study. This procedure provided experiments with a final volume of 1100 μL (<0.6% organic solvent content), a concentration for HLMs and MLMs of 1 mg/mL, and a final test compound concentration of 3 μM. Aliquots (100 μL) were removed from each reaction mixture in duplicate at 0, 5, 10, 15, and 30 min time intervals and quenched with 100 μL of cold internal standard solution (ISTD, 2 μM 7-ethoxy-d5-coumarin in MeOH or MeCN). Quenched aliquots were then centrifuged at 12 500 g for 5–10 min, and the resulting supernatants were withdrawn and placed in LC-MS vials to be analyzed by LC-MS/MS (Agilent G6460C QQQ MS coupled with an Infinity II 1260 HPLC). Each test compound was run in tandem with positive and negative control experiments for quality assurance. Positive control reactions were conducted at a final volume of 550 μL for a single run at each time point. Lastly, the negative control experiment was conducted with test compounds and liver microsomes in the absence of NADPH (150 μL) and analyzed at the 30 min time point.
(§1) For both LM and plasma assays, each data point was analyzed in triplicate using between blank washes to avoid carry over and to equilibrate the column for the subsequent runs. Averages of these triplicates for individual compounds at each time point were then normalized to the data at 0 min, representing 100% of the test compound remaining or 0% metabolism. Half-lives (t1/2) were calculated by plotting ln of % test compound remaining versus time and performing linear regression to determine slope. Slope = −k and t1/2 = 0.693/k for first-order kinetics (see Figures S5 and S6 for a representative example).
(In general: Microsomes from liver hold many membrane-bound enzymes, among them those of drug oxidation.)
For `O=C(O)CCC(=O)N1N=C(c2c(-c3ccc(Cl)cc3)c3ccccc3[nH]c2=O)CC1c1ccc(Cl)cc1` (stereo not shown) [2a], the microsomal CLint at 3 μM was < 23 µL/min/mg.

For `O=C(CC(F)(F)C(=O)N1N=C(c2c(-c3ccc(Cl)cc3)c3ccccc3[nH]c2=O)CC1c1ccc(Cl)cc1)OCc1ccccc1` (stereo not shown) [2p], the microsomal CLint at 3 μM stood at 105 µL/min/mg.

Still in this data set, the particulars now being: liver microsomes, incubation up to 30 min, 3 μM, read-out: liver microsome stability T1/2, human.
As to `O=C(O)CCC(=O)N1N=C(c2c(-c3ccc(Cl)cc3)c3ccccc3[nH]c2=O)CC1c1ccc(Cl)cc1` (stereo not shown) [2a], the half-life at 3 μM is > 30 min.

`O=C(CC(F)(F)C(=O)N1N=C(c2c(-c3ccc(Cl)cc3)c3ccccc3[nH]c2=O)CC1c1ccc(Cl)cc1)OCc1ccccc1` (stereo not shown) [2p]: the half-life at 3 μM was determined as 6.6 min.

The data set is the same for the next values; noted with them: liver microsomes, over the assay time course (30 min), read-out: % remaining, human LMs.
For the compound `O=C(O)CCC(=O)N1N=C(c2c(-c3ccc(Cl)cc3)c3ccccc3[nH]c2=O)CC1c1ccc(Cl)cc1` (stereo not shown) [2a], the fraction remaining at 0.5 h, 3 µM is > 95%.

Another data set has as its target T1, CYP2D6 (Homo sapiens, UniProt P10635).
T1 construct: purchased Corning; host or cells: insect cells (microsomes)
In words: Fluorometric CYP450 enzyme inhibition assay, CYP2D6. Type of data set: in vitro ADME. The note with it: n = 2 (2k n = 4).
Experimental: CYP450 inhibition assays utilized microsomes from insect cells that express recombinant human CYP2D6 and CYP3A4 isoforms (Corning) with substrates of CYP2D6 (3-[2-(N,N-diethyl-N-methylammonium)-ethyl]-7-methoxy-4-methylcoumarin iodide, AMMC) and CYP3A4 (7-benzyloxy-4-trifluoromethylcoumarin, BFC) capable of producing fluorescent metabolites.[51],[52] […] A 100 mM sodium phosphate buffer was prepared and adjusted to a pH 7.4. In a separate falcon tube, a 2× enzyme–substrate (E–S) solution was prepared in phosphate buffer. The final concentrations of CYP2D6 and AMMC were 10 nM and 4 μM, respectively. The final concentrations of CYP3A4 and BFC were 20 nM and 40 μM, respectively. In a separate falcon tube, 2X solutions of the NADPH regenerating system (NRS) were prepared in phosphate buffer. The final concentrations for each NRS component in the corresponding assays were as follows: (1) CYP2D6 assay = 0.008 mM NADPH, 3.3 mM glucose-6-phosphate, and 0.4 U of glucose-6-phosphate dehydrogenase/mL and (2) CYP3A4 assay = 2.45 mM NADPH, 24.7 mM glucose-6-phosphate, and 1.25 U of glucose-6-phosphate dehydrogenase/mL.
Both enzymatic assays were conducted in a 96-well microtiter plate (Black, Corning Costar) with a final volume of 100 μL per well. Preparation of each plate began with the addition of 74 μL of the 2× E–S solution in the first well and 50 μL to all remaining wells (2–11) in the same row. […] 3-Fold serial dilutions of the test compounds were subsequently conducted by removing 25 μL from the first well and adding it to the second, followed by removing 25 μL from the second well and adding it to the third, and so forth until the 10th row. This procedure provided final concentrations for the test compound ranging from 100 to 0.01 μM across the same row (50 μL total for each well). Well 11 contained no test compound (0% inhibition and 100% activity). Well 12 contained 50 μL of substrate and test compound (100 μM) absent from the enzyme (0% activity, 100% inhibition). Wells 11 and 12 were used as controls for background fluorescence as described below. Each plate was then incubated for 30 min at 37 °C. After incubation was complete, reactions were initiated by the addition of 50 μL of 2X NRS to wells 1–12 (final well volume of 100 μL). Fluorescence measurements were immediately (<1 min) taken using a microplate reader (BioTek Synergy Neo 2). CYP2D6 was monitored at Ex/Em = 410/460 nm, and CYP3A4 was monitored at Ex/Em = 410/538 nm. Next, measurements were conducted in kinetic mode with scans every 5 min for 60 min. Two time points (30 and 60 min) were then chosen in the linear phase of the kinetic graph (reaction progression curve), and the corresponding relative fluorescence units (RFUs) at these time points were used to determine the rate of change in fluorescence according to the following equations [drawing 6] 3 [drawing 7] 4 [drawing 8] 5 where eq 3 defines the difference in RFUs between the 60 and 30 min time points, eq 4 normalizes the background-adjusted ΔRFU to no inhibitor control, and eq 5 converts % inhibition to % activity.
The resulting data were then exported and analyzed using Graph Pad Prism v7. The concentration of each test compound required to inhibit 50% substrate metabolism (IC50) was subsequently calculated from the resulting 10-point concentration–response curves (normalized fluorescence versus log[inhibitor]) using four-parameter logistic nonlinear regression (see Figure S4B for a representative example).
`O=C(O)CCC(=O)N1N=C(c2c(-c3ccc(Cl)cc3)c3ccccc3[nH]c2=O)CC1c1ccc(Cl)cc1` (stereo not shown) [2a] gave an IC50 of 18 ± 0.8 µM.

Take `O=C(CC(F)(F)C(=O)N1N=C(c2c(-c3ccc(Cl)cc3)c3ccccc3[nH]c2=O)CC1c1ccc(Cl)cc1)OCc1ccccc1` (stereo not shown) [2p]: the IC50 is > 20 µM.

Test system in the next data set: not listed separately
The data set can be described thus: Plasma stability, mouse. In kind it is in vitro ADME. The note with it: male, BALB/C, mouse, mouse plasma; incubation up to 120 min; 3 μM; read-out: plasma stability T1/2, mouse. How it is done:
Human plasma (lithium heparin (LiHep) mixed, gender pooled, 0.2 μm filtered) and mouse plasma (BALB/C, LiHep mixed, male pooled, 0.2 μm filtered) were purchased from BioIVT. Procaine (Sigma-Aldrich) served as a positive control for both human and mouse plasma experiments. Test compounds and positive controls were initially dissolved in DMSO to make 10 mM stock solutions. The solutions of test and control compounds were then further diluted in 70% MeOH/H2O or 100% MeCN to 500 μM. Next, the human or mouse plasma (994 μL) was aliquoted into 1.5 mL Eppendorf tubes with duplicates (reactions A and B) being prepared for each compound. The plasma was then incubated at 37 °C for 10 min. Afterward, the reaction was initiated by the addition of the test compound (6 μL of 500 μM solution) and further incubated at 37 °C for the designated time course of the study. This procedure provided duplicate experiments with a final volume of 1000 μL (<0.6% organic solvent content) and a final test compound concentration of 3 μM. Aliquots (100 μL) were removed from each reaction mixture at 0, 15, 30, 60, and 120 min time intervals and quenched with 150 μL of cold ISTD solution (2 μM 7-ethoxy-d5-coumarin in MeOH or MeCN). Quenched aliquots were then centrifuged at 15,000 g for 30–45 min, and the resulting supernatants (∼70 μL) were withdrawn and placed in LC-MS vials to be analyzed by LC-MS/MS (Agilent G6460C QQQ MS coupled with an Infinity II 1260 HPLC). Each test compound was run in tandem with positive and negative control experiments for quality assurance. The positive control reaction was conducted at a final volume of 1000 μL for a single run at each time point. Finally, the negative control experiment was conducted with test compounds in DPBS (143 μL) and analyzed at the 120 min time point.
as §1
On to `O=C(O)CCC(=O)N1N=C(c2c(-c3ccc(Cl)cc3)c3ccccc3[nH]c2=O)CC1c1ccc(Cl)cc1` (stereo not shown) [2a], for which the half-life at 3 μM was > 120 min.

In the case of `O=C(CC(F)(F)C(=O)N1N=C(c2c(-c3ccc(Cl)cc3)c3ccccc3[nH]c2=O)CC1c1ccc(Cl)cc1)OCc1ccccc1` (stereo not shown) [2p], the half-life at 3 μM is 1.4 min.

Still in this data set, the particulars now being: male, BALB/C, mouse, plasma; over the assay time course.
For the compound `O=C(O)CCC(=O)N1N=C(c2c(-c3ccc(Cl)cc3)c3ccccc3[nH]c2=O)CC1c1ccc(Cl)cc1` (stereo not shown) [2a], the share remaining at 120 min, 3 µM was > 95%.

Test system in the next data set: not listed separately
The data set can be described thus: Brain homogenate tissue binding and stability (RED device). In kind it is in vitro ADME, mouse. The note with it: C57BL/6, mouse, brain homogenate (4 times diluted), pH 7.4, mouse brain tissue binding (free fraction in brain); read-out: % Unbound. How it is done: Carbamazepine (Apin Chemicals) served as a positive control for brain tissue binding. Test compounds and the positive control were initially dissolved in DMSO to make 1 mM stock solutions. […] A rapid equilibrium dialysis (RED) device (Thermo Scientific) containing a dialysis membrane with a molecular weight cutoff of 8000 Da was used to assess tissue binding and metabolic stability. […] The test compounds and positive control (200 μL of 5 μM solution) were added to the red chamber of the dialysis insert, while the white chamber was filled with dialysis buffer (350 μL). The RED device was then sealed with an adhesive film and incubated at 37 °C with shaking (300 rpm) for 4 h. For the initial time point (t = 0 min), 50 μL aliquots of test compounds and the positive control were added to 96-deep well plates (0.7 mL per well) and quenched with 400 μL of MeCN. Following dialysis, another 50 μL aliquot of the tested samples was removed from each well (brain homogenate and buffer) and diluted with an equal volume of the opposite matrix to nullify any matrix effects. […] The supernatant (100 μL) was subsequently transferred to 96-deep well plates for LC-MS/MS analysis. Prodrug metabolism and 2i concentrations were determined by fit-for-purpose LC-MS/MS methods on a nine-point calibration curve ranging from 0.12 to 7.5 μM.
As to `O=C(O)CCC(=O)N1N=C(c2c(-c3ccc(Cl)cc3)c3ccccc3[nH]c2=O)CC1c1ccc(Cl)cc1` (stereo not shown) [2a], the fraction unbound at 4 h, 5 µM stood at 0.002.

Staying with this data set, now noted: C57BL/6, mouse, brain homogenate (4 times diluted), pH 7.4, mouse brain tissue binding, RED, 4 h; read-out: % Bound Mean ± SD (converted).
In the case of `O=C(O)CCC(=O)N1N=C(c2c(-c3ccc(Cl)cc3)c3ccccc3[nH]c2=O)CC1c1ccc(Cl)cc1` (stereo not shown) [2a], the fraction unbound at 4 h, 5 µM is 0.002.

Still in this data set, the particulars now being: C57BL/6, mouse, brain homogenate (4 times diluted), pH 7.4, mouse brain tissue binding, RED, 4 h; read-out: % Bound R1 (converted).
Turning to `O=C(O)CCC(=O)N1N=C(c2c(-c3ccc(Cl)cc3)c3ccccc3[nH]c2=O)CC1c1ccc(Cl)cc1` (stereo not shown) [2a], the fraction unbound at 4 h, 5 µM was 0.001.

The same data set, now with this note: C57BL/6, mouse, brain homogenate (4 times diluted), pH 7.4, mouse brain tissue binding, RED, 4 h; read-out: % Bound R2 (converted).
Turning to `O=C(O)CCC(=O)N1N=C(c2c(-c3ccc(Cl)cc3)c3ccccc3[nH]c2=O)CC1c1ccc(Cl)cc1` (stereo not shown) [2a], the fraction unbound at 4 h, 5 µM was 0.002.

Staying with this data set, now noted: C57BL/6, mouse, brain homogenate (4 times diluted), pH 7.4, mouse brain tissue binding; read-out: fu.
Consider `O=C(O)CCC(=O)N1N=C(c2c(-c3ccc(Cl)cc3)c3ccccc3[nH]c2=O)CC1c1ccc(Cl)cc1` (stereo not shown) [2a], for which the fraction unbound at 4 h, 5 µM was determined as 0.002.

The same data set, now with this note: C57BL/6, mouse, brain homogenate (4 times diluted), pH 7.4; starting concentration 5 μM; 4 h.
For `O=C(O)CCC(=O)N1N=C(c2c(-c3ccc(Cl)cc3)c3ccccc3[nH]c2=O)CC1c1ccc(Cl)cc1` (stereo not shown) [2a], the fraction remaining at 4 h, 5 µM is 94%.

Compound `O=C(CC(F)(F)C(=O)N1N=C(c2c(-c3ccc(Cl)cc3)c3ccccc3[nH]c2=O)CC1c1ccc(Cl)cc1)OCc1ccccc1` (stereo not shown) [2p] returned a share remaining at 4 h, 5 µM of 31%.

Staying with this data set, now noted: C57BL/6, pH 7.4; mouse brain tissue binding, RED, 4 h.
Turning to `O=C(O)CCC(=O)N1N=C(c2c(-c3ccc(Cl)cc3)c3ccccc3[nH]c2=O)CC1c1ccc(Cl)cc1` (stereo not shown) [2a], the recovery at 4 h, 5 μM was determined as 100%.

Regarding `O=C(CC(F)(F)C(=O)N1N=C(c2c(-c3ccc(Cl)cc3)c3ccccc3[nH]c2=O)CC1c1ccc(Cl)cc1)OCc1ccccc1` (stereo not shown) [2p], the recovery at 4 h, 5 μM worked out at 33%.

Staying with this data set, now noted: buffer chamber after 4 h dialysis.
Take `O=C(CC(F)(F)C(=O)N1N=C(c2c(-c3ccc(Cl)cc3)c3ccccc3[nH]c2=O)CC1c1ccc(Cl)cc1)OCc1ccccc1` (stereo not shown) [2p]: the “Average 2i Concentration, Buffer_Mice” value is recorded as “BLQ”.
